24 compounds from US8501770B2 (ArQule, Inc., priority 2009, dated 2013) can be followed below.

Full-length inactive AKT1, sequence (P31749 whole entry): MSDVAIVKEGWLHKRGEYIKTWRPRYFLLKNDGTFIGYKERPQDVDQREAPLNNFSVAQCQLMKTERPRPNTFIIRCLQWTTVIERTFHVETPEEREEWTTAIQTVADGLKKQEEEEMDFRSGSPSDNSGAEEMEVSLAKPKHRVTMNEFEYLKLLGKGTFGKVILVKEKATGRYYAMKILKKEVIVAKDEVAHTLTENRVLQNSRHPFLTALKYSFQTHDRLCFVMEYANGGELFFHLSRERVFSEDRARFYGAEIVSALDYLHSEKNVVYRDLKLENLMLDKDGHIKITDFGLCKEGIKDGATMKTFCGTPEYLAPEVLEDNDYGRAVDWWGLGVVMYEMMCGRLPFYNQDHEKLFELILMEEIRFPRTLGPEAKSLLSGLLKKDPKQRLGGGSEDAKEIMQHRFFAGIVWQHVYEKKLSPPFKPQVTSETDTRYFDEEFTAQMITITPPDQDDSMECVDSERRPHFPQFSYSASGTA

This assay addresses Full-length inactive AKT1 (Homo sapiens, UniProt P31749). The experiment in a line: Inactive Akt Alpha Screen Assay. Format: biochemical. The settings on record: values not marked with "*"; read-out: Akt1 IC50, (AlphaScreen). The essentials: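 AlphaScreen read-out (excitation 640 nm, emission 570 nm) after 90 min incubation at room temperature in the dark. Signal comes from crosstide phosphorylation by AKT1, which was activated by added PDK1, MAPKAPK2, ATP and lipid vesicles, captured via phospho-AKT substrate antibody and streptavidin beads.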
With `Nc1ncccc1-c1nc2ccc(-c3cc[nH]c3)nc2n1-c1ccc(C2(N)CCC2)cc1` [Example 408, 3-{3-[4-(1-aminocyclobutyl)phenyl]-5-(1H-pyrrol-3-yl)-3H-imidazo[4,5-b]pyridin-2-yl}pyridin-2-amine], the half-maximal inhibitory concentration (IC50) was 2.4 nM.
Take `CN(C)c1cccc(-c2ccc3nc(-c4cccnc4N)n(-c4ccc(C5(N)CCC5)cc4)c3n2)c1` [Example 409, 3-{3-[4-(1-aminocyclobutyl)phenyl]-5-[3-(dimethylamino)phenyl]-3H-imidazo[4,5-b]pyridin-2-yl}pyridin-2-amine]: the IC50 came out at 5.3 nM.
Then `CN(C)c1ccc(-c2ccc3nc(-c4cccnc4N)n(-c4ccc(C5(N)CCC5)cc4)c3n2)cc1` [Example 410, 3-{3-[4-(1-aminocyclobutyl)phenyl]-5-[4-(dimethylamino)phenyl]-3H-imidazo[4,5-b]pyridin-2-yl}pyridin-2-amine], with 9.7 nM; and `COc1cc(OC)cc(-c2ccc3nc(-c4cccnc4N)n(-c4ccc(C5(N)CCC5)cc4)c3n2)c1` [Example 411, 3-{3-[4-(1-aminocyclobutyl)phenyl]-5-(3,5-dimethoxyphenyl)-3H-imidazo[4,5-b]pyridin-2-yl}pyridin-2-amine], with 4.5 nM; and `COCc1cccc(-c2ccc3nc(-c4cccnc4N)n(-c4ccc(C5(N)CCC5)cc4)c3n2)c1` [Example 412, 3-{3-[4-(1-aminocyclobutyl)phenyl]-5-[3-(methoxymethyl)phenyl]-3H-imidazo[4,5-b]pyridin-2-yl}pyridin-2-amine], with 4 nM.
As for `COc1ccc(F)c(-c2ccc3nc(-c4cccnc4N)n(-c4ccc(C5(N)CCC5)cc4)c3n2)c1` [Example 413, 3-{3-[4-(1-aminocyclobutyl)phenyl]-5-(2-fluoro-5-methoxyphenyl)-3H-imidazo[4,5-b]pyridin-2-yl}pyridin-2-amine], the half-maximal inhibitory concentration (IC50) was determined as 7 nM.
Regarding `COc1ccc(-c2ccc3nc(-c4cccnc4N)n(-c4ccc(C5(N)CCC5)cc4)c3n2)cc1OC` [Example 414, 3-{3-[4-(1-aminocyclobutyl)phenyl]-5-(3,4-dimethoxyphenyl)-3H-imidazo[4,5-b]pyridin-2-yl}pyridin-2-amine], the IC50 was determined as 4.9 nM.
In the case of `Nc1ncccc1-c1nc2cccnc2n1-c1ccc(C2(N)CCC2)cc1` [Example 415, 3-{3-[4-(1-aminocyclobutyl)phenyl]-3H-imidazo[4,5-b]pyridin-2-yl}pyridin-2-amine] it was 13 nM; in that of `Nc1ncccc1-c1nc2ccc(-c3ccc4scnc4c3)nc2n1-c1ccc(C2(N)CCC2)cc1` [Example 416, 3-{3-[4-(1-aminocyclobutyl)phenyl]-5-(1,3-benzothiazol-5-yl)-3H-imidazo[4,5-b]pyridin-2-yl}pyridin-2-amine], 4.2 nM.
In the case of `COc1cc(-c2ccc3nc(-c4cccnc4N)n(-c4ccc(C5(N)CCC5)cc4)c3n2)ccc1N` [Example 417, 3-{3-[4-(1-aminocyclobutyl)phenyl]-5-(4-amino-3-methoxyphenyl)-3H-imidazo[4,5-b]pyridin-2-yl}pyridin-2-amine] it was 2 nM; in that of `Nc1ncccc1-c1nc2ccc(-c3cc[nH]n3)nc2n1-c1ccc(C2(N)CCC2)cc1` [Example 418, 3-{3-[4-(1-aminocyclobutyl)phenyl]-5-(1H-pyrazol-3-yl)-3H-imidazo[4,5-b]pyridin-2-yl}pyridin-2-amine], 8.2 nM.
In the case of `COc1cc(-c2ccc3nc(-c4cccnc4N)n(-c4ccc(C5(N)CCC5)cc4)c3n2)ccc1O` [Example 419, 4-{3-[4-(1-aminocyclobutyl)phenyl]-2-(2-aminopyridin-3-yl)-3H-imidazo[4,5-b]pyridin-5-yl}-2-methoxyphenol] it was 2.7 nM.
`COc1cc(F)cc(-c2ccc3nc(-c4cccnc4N)n(-c4ccc(C5(N)CCC5)cc4)c3n2)c1` [Example 420, 3-{3-[4-(1-aminocyclobutyl)phenyl]-5-(3-fluoro-5-methoxyphenyl)-3H-imidazo[4,5-b]pyridin-2-yl}pyridin-2-amine]: the IC50 is 5.4 nM.
For `COc1cccc(-c2ccc3nc(-c4cccnc4N)n(-c4ccc(C5(N)CCC5)cc4)c3n2)c1F` [Example 421, 3-{3-[4-(1-aminocyclobutyl)phenyl]-5-(2-fluoro-3-methoxyphenyl)-3H-imidazo[4,5-b]pyridin-2-yl}pyridin-2-amine], the IC50 was determined as 17 nM.
For `CCCOc1cccc(-c2ccc3nc(-c4cccnc4N)n(-c4ccc(C5(N)CCC5)cc4)c3n2)c1` [Example 422, 3-{3-[4-(1-aminocyclobutyl)phenyl]-5-(3-propoxyphenyl)-3H-imidazo[4,5-b]pyridin-2-yl}pyridin-2-amine], the IC50 amounted to 11 nM.
In the case of `Nc1ncccc1-c1nc2ccc(-c3cc4ccccc4o3)nc2n1-c1ccc(C2(N)CCC2)cc1` [Example 423, 3-{3-[4-(1-aminocyclobutyl)phenyl]-5-(1-benzofuran-2-yl)-3H-imidazo[4,5-b]pyridin-2-yl}pyridin-2-amine] it was 6.6 nM; in that of `Nc1ncccc1-c1nc2ccc(-c3ccc(O)cc3)nc2n1-c1ccc(C2(N)CCC2)cc1` [Example 424, 4-{3-[4-(1-aminocyclobutyl)phenyl]-2-(2-aminopyridin-3-yl)-3H-imidazo[4,5-b]pyridin-5-yl}phenol], 9.3 nM.
Then `Nc1ncccc1-c1nc2ccc(-c3nccs3)nc2n1-c1ccc(C2(N)CCC2)cc1` [Example 425, 3-{3-[4-(1-aminocyclobutyl)phenyl]-5-(1,3-thiazol-2-yl)-3H-imidazo[4,5-b]pyridin-2-yl}pyridin-2-amine], with 10 nM.
Then `Nc1ncccc1-c1nc2ccc(-c3cccc(OC(F)(F)F)c3)nc2n1-c1ccc(C2(N)CCC2)cc1` [Example 426, 3-{3-[4-(1-aminocyclobutyl)phenyl]-5-[3-(trifluoromethoxy)phenyl]-3H-imidazo[4,5-b]pyridin-2-yl}pyridin-2-amine], with 5 nM; and `Nc1ncccc1-c1nc2ccc(-c3ccsc3)nc2n1-c1ccc(C2(N)CCC2)cc1` [Example 427, 3-{3-[4-(1-aminocyclobutyl)phenyl]-5-(3-thienyl)-3H-imidazo[4,5-b]pyridin-2-yl}pyridin-2-amine], with 10 nM; and `COc1cc(-c2ccc3nc(-c4cccnc4N)n(-c4ccc(C5(N)CCC5)cc4)c3n2)ccc1F` [Example 428, 3-{3-[4-(1-aminocyclobutyl)phenyl]-5-(4-fluoro-3-methoxyphenyl)-3H-imidazo[4,5-b]pyridin-2-yl}pyridin-2-amine], with 5.8 nM.
`COc1ccc(-c2ccc3nc(-c4cccnc4N)n(-c4ccc(C5(N)CCC5)cc4)c3n2)cc1O` [Example 429, 5-{3-[4-(1-aminocyclobutyl)phenyl]-2-(2-aminopyridin-3-yl)-3H-imidazo[4,5-b]pyridin-5-yl}-2-methoxyphenol]: the IC50 was determined as 9.5 nM.
Turning to `COc1cccc(-c2ccc3nc(-c4cccnc4N)n(-c4ccc(C5(N)CCC5)cc4)c3n2)c1O` [Example 430, 2-{3-[4-(1-aminocyclobutyl)phenyl]-2-(2-aminopyridin-3-yl)-3H-imidazo[4,5-b]pyridin-5-yl}-6-methoxyphenol], the IC50 worked out at 3.8 nM.
Then `Nc1ncccc1-c1nc2ccc(-c3cccc(N4CCCCC4)c3)nc2n1-c1ccc(C2(N)CCC2)cc1` [Example 431, 3-{3-[4-(1-aminocyclobutyl)phenyl]-5-(3-piperidin-1-ylphenyl)-3H-imidazo[4,5-b]pyridin-2-yl}pyridin-2-amine], with 18 nM.
